≈ marks a conversion by molar mass, not a printed value.
What was measured:
Test in all cases: Agar dilution MIC
[1] = test system: Anaerobiospirillum succiniciproducens; format: cell-based; conditions: 3 isolates
Bacteroides gracilis = format: cell-based, Bacteroides gracilis (Campylobacter gracilis); conditions: 11 isolates
Veillonella spp. = format: cell-based; conditions: Veillonella, 24 isolates
[2] = test system: Anaerobiospirillum thomasii; format: cell-based; conditions: Anaerobiospirillum thomasii, 13 isolates
[3] = test system: Prevotella heparinolytica; format: cell-based; conditions: Prevotella heparinolytica, 16 isolates
Porphyromonas spp. = format: cell-based, Porphyromonas cangingivalis, cansulci, circumdentaria, levii; conditions: Porphyromonas, 11 isolates
[4] = test system: Peptostreptococcus magnus; format: cell-based; conditions: 13 isolates
Porphyromonas macaccae = format: cell-based; conditions: Porphyromonas, 13 isolates
[5] = test system: Prevotella melaninogenica; format: cell-based; conditions: Prevotella melaninogenica, 12 isolates
[6] = test system: Peptostreptococcus asaccharolyticus; format: cell-based; conditions: Peptoniphilus asaccharolyticus, 11 isolates
[7] = test system: Prevotella buccae-oris group; format: cell-based; conditions: Prevotella, 22 isolates
[8] = test system: Peptostreptococcus prevotii; format: cell-based; conditions: 9 isolates
[9] = test system: Peptostreptococcus micros; format: cell-based; conditions: 12 isolates
Clostridium dfficile = format: cell-based, Clostridium difficile; conditions: Clostridium, read-out: Minimal Inhibitory Concentration 90% (MIC90), 14 isolates
[10] = test system: Porphyromonas asaccharolyticus; format: cell-based, Porphyromonas asaccharolytica; conditions: Porphyromonas, 11 isolates
Bacteroides ureolyticus = format: cell-based; conditions: 17 isolates
Bilophila wadsworthia = format: cell-based; conditions: 16 isolates, agar supplemented with pyruvate
Actinomyces israelii = format: cell-based; conditions: 6 isolates
Clostridium inocuum = format: cell-based, Clostridium innocuum; conditions: Clostridium, 11 isolates
[11] = test system: Fusobacterium spp group 1; format: cell-based; conditions: Fusobacterium, 19 isolates
Prevotella intermedia = format: cell-based; conditions: Prevotella intermedia, 11 isolates
Clostridium ramosum = format: cell-based; conditions: 10 isolates
[12] = test system: Prevotella denticola/loeschii group; format: cell-based; conditions: Prevotella denticola, read-out: Minimal Inhibitory Concentration 50% (MIC50); 6 isolates
Bacteroides tectum = format: cell-based; conditions: Bacteroides pyogenes, 22 isolates
Porphyromonas gingivalis = format: cell-based; conditions: Porphyromonas gingivalis, 13 isolates
Porphyromonas canoris = format: cell-based; conditions: Porphyromonas canoris, 10 isolates
Fusobacterium russii = format: cell-based; conditions: Fusobacterium russii
[13] = test system: Fusobacterium spp. group 2; format: cell-based, Fusobacterium mortiferum, necrogenes, ulcerans; conditions: 12 isolates
[14] = test system: Actinomyces odontolyticus; format: cell-based; conditions: Schaalia odontolytica, 10 isolates
Prevotella bivia = format: cell-based; conditions: Prevotella bivia, 21 isolates
[15] = test system: Clostridium clostridioforme; format: cell-based; conditions: Clostridium, 11 isolates
Fusobacterium varium = format: cell-based; conditions: 17 isolates
[16] = read-out: Minimal Inhibitory Concentration 90% (MIC90)
[17] = read-out: Minimal Inhibitory Concentration 50% (MIC50)

CCC[C@@H]1C[C@@H](C(=O)N[C@@H]([C@H]2O[C@H](SC)[C@H](O)[C@@H](O)[C@H]2O)[C@H](C)Cl)N(C)C1 [Clindamycin]
Minimal Inhibitory Concentration Range [1]: 32 µg/mL | MIC50 ([1]; Anaerobiospirillum succiniciproducens, read-out: Minimal Inhibitory Concentration 50% (MIC50)): 32 µg/mL (≈ 75.3 µM) | Minimal Inhibitory Concentration Range (Bacteroides gracilis): 0.03 to 8 µg/mL | MIC90 (Bacteroides gracilis; Campylobacter gracilis, read-out: Minimal Inhibitory Concentration 90% (MIC90)): 2 µg/mL (≈ 4.71 µM) | MIC50 (Bacteroides gracilis; Campylobacter gracilis, read-out: Minimal Inhibitory Concentration 50% (MIC50)): 0.25 µg/mL (≈ 0.588 µM) | MIC90 (Veillonella spp.; [16]): 2 µg/mL (≈ 4.71 µM) | MIC50 (Veillonella spp.; [17]): 0.06 µg/mL (≈ 0.141 µM) | MIC50 [2, 17]: 32 µg/mL (≈ 75.3 µM) | MIC90 [2, 16]: > 32 µg/mL | MIC90 [3, 16]: ≤ 0.015 µg/mL | MIC50 [3, 17]: ≤ 0.015 µg/mL | MIC50 (Porphyromonas spp.; [17]): ≤ 0.015 µg/mL | MIC90 (Porphyromonas spp.; [16]): ≤ 0.015 µg/mL | Minimal Inhibitory Concentration Range [4]: 0.06 to 2 µg/mL | MIC50 ([4]; Finegoldia magna, read-out: Minimal Inhibitory Concentration 50% (MIC50)): 0.5 µg/mL (≈ 1.18 µM) | MIC90 ([4]; Finegoldia magna, read-out: Minimal Inhibitory Concentration 90% (MIC90)): 2 µg/mL (≈ 4.71 µM) | MIC50 (Porphyromonas macaccae; [17]): ≤ 0.015 µg/mL | MIC90 (Porphyromonas macaccae; [16]): ≤ 0.015 µg/mL | MIC90 [5, 16]: 0.5 µg/mL (≈ 1.18 µM) | MIC50 [5, 17]: ≤ 0.015 µg/mL | MIC50 [6, 17]: 0.06 µg/mL (≈ 0.141 µM) | MIC90 [6, 16]: > 32 µg/mL | MIC90 [7, 16]: 0.03 µg/mL (≈ 0.0706 µM) | MIC50 [7, 17]: ≤ 0.015 µg/mL | Minimal Inhibitory Concentration Range [8]: 0.030 to 32 µg/mL | MIC50 ([8]; Anaerococcus prevotii, read-out: Minimal Inhibitory Concentration 50% (MIC50)): 1 µg/mL (≈ 2.35 µM) | Minimal Inhibitory Concentration Range [9]: 0.06 to 0.125 µg/mL | MIC50 ([9]; Parvimonas micra, read-out: Minimal Inhibitory Concentration 50% (MIC50)): 0.125 µg/mL (≈ 0.294 µM) | MIC90 ([9]; Parvimonas micra, read-out: Minimal Inhibitory Concentration 90% (MIC90)): 0.125 µg/mL (≈ 0.294 µM) | MIC90 (Clostridium dfficile): > 32 µg/mL | MIC50 [10, 17]: ≤ 0.015 µg/mL | MIC90 [10, 16]: > 32 µg/mL | Minimal Inhibitory Concentration Range (Bacteroides ureolyticus): 0.03 to 0.5 µg/mL | MIC90 (Bacteroides ureolyticus; Campylobacter ureolyticus, read-out: Minimal Inhibitory Concentration 90% (MIC90)): 0.25 µg/mL (≈ 0.588 µM) | MIC50 (Bacteroides ureolyticus; Campylobacter ureolyticus, read-out: Minimal Inhibitory Concentration 50% (MIC50)): 0.06 µg/mL (≈ 0.141 µM) | Minimal Inhibitory Concentration Range (Bilophila wadsworthia): 0.25 to 2 µg/mL | MIC90 (Bilophila wadsworthia; Bilophila wadsworthia, read-out: Minimal Inhibitory Concentration 90% (MIC90)): 2 µg/mL (≈ 4.71 µM) | MIC50 (Bilophila wadsworthia; Bilophila wadsworthia, read-out: Minimal Inhibitory Concentration 50% (MIC50)): 0.5 µg/mL (≈ 1.18 µM) | Minimal Inhibitory Concentration Range (Actinomyces israelii): 0.06 to 0.25 µg/mL | MIC50 (Actinomyces israelii; Actinomyces israelii, read-out: Minimal Inhibitory Concentration 50% (MIC50)): 0.06 µg/mL (≈ 0.141 µM) | MIC90 (Clostridium inocuum; [16]): > 32 µg/mL | MIC50 (Clostridium inocuum; [17]): 0.5 µg/mL (≈ 1.18 µM) | MIC50 ([11]; GROUP1, read-out: Minimal Inhibitory Concentration 50% (MIC50)): 0.06 µg/mL (≈ 0.141 µM) | MIC90 ([11]; GROUP1, read-out: Minimal Inhibitory Concentration 90% (MIC90)): 0.125 µg/mL (≈ 0.294 µM) | MIC90 (Prevotella intermedia; [16]): ≤ 0.015 µg/mL | MIC50 (Prevotella intermedia; [17]): ≤ 0.015 µg/mL | Minimal Inhibitory Concentration Range (Clostridium ramosum): 0.25 to 4 µg/mL | MIC50 (Clostridium ramosum; Thomasclavelia ramosa, read-out: Minimal Inhibitory Concentration 50% (MIC50)): 2 µg/mL (≈ 4.71 µM) | MIC90 (Clostridium ramosum; Thomasclavelia ramosa, read-out: Minimal Inhibitory Concentration 90% (MIC90)): 2 µg/mL (≈ 4.71 µM) | MIC50 [12]: ≤ 0.015 µg/mL | MIC90 (Bacteroides tectum; [16]): ≤ 0.015 µg/mL | MIC50 (Bacteroides tectum; [17]): ≤ 0.015 µg/mL | MIC50 (Porphyromonas gingivalis; [17]): ≤ 0.015 µg/mL | MIC90 (Porphyromonas gingivalis; [16]): ≤ 0.015 µg/mL | MIC50 (Porphyromonas canoris; [17]): ≤ 0.015 µg/mL | MIC90 (Porphyromonas canoris; [16]): ≤ 0.015 µg/mL | MIC50 (Fusobacterium russii; [17]): 0.03 µg/mL (≈ 0.0706 µM) | MIC90 (Fusobacterium russii; [16]): 0.06 µg/mL (≈ 0.141 µM) | Minimal Inhibitory Concentration Range [13]: 0.06 to 8 µg/mL | MIC50 ([13]; Fusobacterium, read-out: Minimal Inhibitory Concentration 50% (MIC50)): 1 µg/mL (≈ 2.35 µM) | MIC90 ([13]; Fusobacterium, read-out: Minimal Inhibitory Concentration 90% (MIC90)): 8 µg/mL (≈ 18.8 µM) | MIC90 [14, 16]: 0.25 µg/mL (≈ 0.588 µM) | MIC50 [14, 17]: 0.125 µg/mL (≈ 0.294 µM) | MIC90 (Prevotella bivia; [16]): 0.03 µg/mL (≈ 0.0706 µM) | MIC50 (Prevotella bivia; [17]): ≤ 0.015 µg/mL | MIC90 [15, 16]: 2 µg/mL (≈ 4.71 µM) | MIC50 [15, 17]: 0.06 µg/mL (≈ 0.141 µM) | Minimal Inhibitory Concentration Range (Fusobacterium varium): 0.06 to 16 µg/mL | MIC50 (Fusobacterium varium; Fusobacterium varium, read-out: Minimal Inhibitory Concentration 50% (MIC50)): 4 µg/mL (≈ 9.41 µM) | MIC90 (Fusobacterium varium; Fusobacterium varium, read-out: Minimal Inhibitory Concentration 90% (MIC90)): 16 µg/mL (≈ 37.6 µM)
